Assay results reported in patent publication US20220192955A1, “AZOXYSTROBIN EFFICACY IN SCALP HEALTH” (The Procter & Gamble Company, priority 2020, published 2022).
Values after ≈ are worked out from the molar mass of the structure shown.

Tested on: Malassezia furfur (CBS 7982)
Test: In vitro evaluation of antifungal potency (MIC)
Assay type: cell-based
Conditions: for MIC value, Malassezia furfur / MIC: M. furfur CBS 7982, mDixon medium, 31° C., approximately 72 hours, absorbance at 600 nm; for MIC: Malassezia furfur, CBS7982
Method: Malassezia furfur (CBS 7982) is grown for approximately 24 hours in a 250 ml vent cap polycarbonate Erlenmeyer flask containing approximately 100 ml of mDixon medium and 5 ml of a fully grown M. furfur culture prepared using the same conditions as described. The cells are diluted by mixing 2.5 ml of the 24 hour-old culture per 50 ml of mDixon medium. A Versette robot (ThermoFisher Scientific) is used to transfer 292.5 μl of the dilute cells into each well of a Beckman 267007 polypropylene round bottom deep well plate. All compounds are sourced from Sigma Aldrich (St. Louis, Mo.) and prepared as 10 mg/ml in DMSO. A semipermeable aeraseal membrane is applied to the plate which is then be covered with water-soaked cotton batting. The samples are be shaken at 31° C. on a Heidolph Titramax 100 shaker at 1500 rpm for approximately 72 hours. The plates are shaken at 1250 rpm on an Eppendorf MixMate shaker to disperse the cells before transferring 200 μl to a Corning 3596 polystyrene plate. The samples are shaken again at 950 rpm on a MixMate shaker before the absorbance at 600 nm is read using a Molecular Devices SpectraMax plate reader.

MIC value, Malassezia furfur [ppm] | times less potent than azoxystrobin (MIC) (Malassezia furfur MIC ratio) [times] | Compound | MIC [µg/mL]
– | – | CO/N=C(/C(=O)OC)c1ccccc1COc1ccccc1C [Kresoxim-methyl, kresoxim methyl] | 15.6 (≈ 49.9 µM)
– | – | CON=C(C(=O)OC)c1ccccc1CON=C(C)c1cccc(C(F)(F)F)c1 [Trifloxystrobin, trifloxystrobin] | 15.6 (≈ 38.3 µM)
– | – | CO/N=C(/C1=NOCCO1)c1ccccc1Oc1ncnc(Oc2ccccc2Cl)c1F [Fluoxastrobin, fluoxastrobin] | 3.91 (≈ 8.52 µM)
31.25 | 64 | CNC(=O)/C(=N/OC)c1ccccc1CO/N=C(C)/C(=N/OC)C(/C)=N/OC [Orysastrobin, orysastrobin] | –
– | – | COC(=O)N(OC)c1ccccc1COc1ccn(-c2ccc(Cl)cc2)n1 [Pyraclastrobin, pyraclostrobin] | 1.95 (≈ 5.03 µM)
7.81 | – | CNC(=O)/C(=N/OC)c1ccccc1COc1cc(C)ccc1C [Dimoxystrobin, dimoxystrobin] | –

Compound | MIC value, Malassezia furfur [ppm] | times less potent than azoxystrobin (MIC) (Malassezia furfur MIC ratio) [times] | MIC [µg/mL]
zinc pyrithione | 3.13 | – | –
